From patent US8093240B2, “Triazole derivatives” (Merck Patent GmbH, priority 2005, dated 2012)

Test system: TGF-beta
Assay: Elimination of TGF-beta-mediated growth inhibition in Mv1Lu cells (Crystal Violet staining)
Format: cell-based
Settings: 48 h; lung epithelial cell line Mv1Lu, 1 ng/ml TGF-beta, 0.5% FCS, two days
Procedure: In-Vitro (Enzyme) Assay for Determination of the Efficacy of Inhibitors of the Inhibition of TGF-Beta-Mediated Effects
As an example, the ability of the inhibitors to eliminate TGF-beta-mediated growth inhibition is tested.
Cells of the lung epithelial cell line Mv1Lu are sown in a defined cell density in a 96-well microtitre plate and cultivated overnight under standard conditions. Next day, the medium is replaced by medium which comprises 0.5% of FCS and 1 ng/ml of TGF-beta, and the test sub-stances are added in defined concentrations, generally in the form of dilution series with 5-fold steps. The concentration of the solvent DMSO is constant at 0.5%. After a further two days, Crystal Violet staining of the cells is carried out. After extraction of the Crystal Violet from the fixed cells, the absorption is measured spectrophotometrically at 550 nm. It can be used as a quantitative measure of the adherent cells present and thus of the cell proliferation during the culture.

First: Cc1cccc(-c2nnc3n2-c2ccc(O)cc2NCC3C)n1 (racemic) [Compound A1, (R,S)-8-hydroxy-4-methyl-1-(6-methylpyridin-2-yl)-5,6-dihydro-4H-2,3,6,10btetraazabenzo[e]azulene]
Second: Cc1cccc(-c2nnc3n2-c2ccc(Cl)cc2NCC3C)n1 (racemic) [Compound A3, (R,S)-8-Chloro-4-methyl-1-(6-methylpyridin-2-yl)-5,6-dihydro-4H-2,3,6,10b-tetraazabenzo[e]azulene]
The IC50 of the first is 19-fold lower: 0.18 µM for the first, 3.5 µM for the second. The first is the more potent here.

First: CC1CNc2cc(O)ccc2-n2c(-c3cccc(Cl)c3)nnc21 (racemic) [Compound A2, (R,S)-1-(3-Chlorophenyl)-4-methyl-5,6-dihydro-4H-2,3,6,10b-tetraazabenzo[e]azulen-8-ol]
Second: COc1cccc(-c2nnc3n2-c2ccc(Cl)cc2NCC3C)c1 (racemic) [Compound B1, (R,S)-8-Chloro-1-(3-methoxyphenyl)-4-methyl-5,6-dihydro-4H-2,3,6,10b-tetraazabenzo[e]azulene]
The IC50 of the first is 7.2-fold lower: 0.97 µM for the first, 7 µM for the second.

Compared with COc1ccc2c(c1)NCC(C)c1nnc(-c3cccc(C)n3)n1-2 (racemic) [Compound A5, (R,S)-8-Methoxy-4-methyl-1-(6-methylpyridin-2-yl)-5,6-dihydro-4H-2,3,6,10b-tetraazabenzo[e]azulene], Cc1cccc(-c2nnc3n2-c2ccc(Cl)cc2NC[C@@H]3C)n1 [Compound A4, (+)-(S)-8-Chloro-4-methyl-1-(6-methylpyridin-2-yl)-5,6-dihydro-4H-2,3,6,10b-tetraazabenzo[e]azulene] is 1.6-fold higher in IC50: 2.4 µM for the first, 3.8 µM for the second.

COc1cccc(-c2nnc3n2-c2ccc(OC)cc2NCC3C)c1 (racemic) [Compound A6, (R,S)-8-Methoxy-1-(3-methoxyphenyl)-4-methyl-5,6-dihydro-4H-2,3,6,10b-tetraazabenzo[e]azulene] and CCOc1cccc(-c2nnc3n2-c2ccc(Cl)cc2NCC3C)c1 (racemic) [Compound A10, (R,S)-8-Chloro-1-(3-ethoxyphenyl)-4-methyl-5,6-dihydro-4H-2,3,6,10b-tetraazabenzo[e]azulene] are within 1.5-fold of each other in IC50: 3.9 µM for the first, 5.7 µM for the second.

First: COc1ccc2c(c1)NCC(C)c1nnc(-c3cc(Cl)ccc3F)n1-2 (racemic) [Compound A8, (R,S)-1-(5-Chloro-2-fluorophenyl)-8-methoxy-4-methyl-5,6-dihydro-4H-2,3,6,10b-tetraazabenzo[e]azulene]
Second: CC1CNc2cc(O)ccc2-n2c(-c3cc(Cl)ccc3F)nnc21 (racemic) [Compound A9, (R,S)-1-(5-Chloro-2-fluorophenyl)-4-methyl-5,6-dihydro-4H-2,3,6,10b-tetraazabenzo[e]azulene-8-ol]
The IC50 of the first is 7.3-fold higher: 6.6 µM for the first, 0.91 µM for the second. The second is the more potent here.

First: Cc1cccc(-c2nnc3n2-c2ccc(O)cc2NCC3)n1 [Compound A7, 1-(6-Methylpyridin-2-yl)-5,6-dihydro-4H-2,3,6,10b-tetraazabenzo[e]azulen-8-ol]
Second: Cc1cccc(-c2nnc3n2-c2ccc(O)cc2NC(C)C3)n1 (stereo not shown) [Compound A78, 5-Methyl-1-(6-methylpyridin-2-yl)-5,6-dihydro-4H-2,3,6,10b-tetraazabenzo[e]azulen-8-ol]
The IC50 of the first is 15-fold higher: 2.2 µM for the first, 0.15 µM for the second.

Cc1cccc(-c2nnc3n2-c2cc(NC(=O)C(C)(C)C)ccc2NCC3C)n1 (stereo not shown) [Compound A80, 2,2-Dimethyl-N-[4-methyl-1-(6-methylpyridin-2-yl)-5,6-dihydro-4H-2,3,6,10b-tetraazabenzo[e]azulen-9-yl]propionamide] gave an IC50 of 3.3 µM.
